Data set [1] can be described thus: MTT cell viability run in parallel with the Tat-hybrid assay. The data set is classed as cell-based. The conditions noted are these: human, Tat-hybrid reporter cell lines (HeLa); Table 6; second 'EC50' entry of the cell, values D/E. The method, boiled down:
(§1)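 HeLa reporter lines (Tat-hybrid) treated with compound for 48 hours, then luciferase luminescence measured. Cytotoxicity assessed in parallel by MTT viability; thienopyridines and diaminoacridine served as controls.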

Data set [2] deals with Tat-hybrid reporter cell lines (HeLa). The description is as above. The data set is classed as cell-based. The conditions noted are these: Table 6; at 50,000 nM. The method, boiled down: as §1
Data set [3] concerns HIV-1 provirus in U1 cells. Put plainly: U1 activation (latency) assay, p24 ELISA. The conditions noted are these: Table 6; read-out: U1 IC50. Type of data set: cell-based. Summed up:
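PHA-activated U1 cells (latent integrated HIV-1 provirus, 250,000/well) treated with compound at final 1 to 10,000 nM for 3 days; virus production measured by p24 ELISA of cell-free supernatant. Cell viability assessed by MTT in parallel cultures.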
Background: In an ELISA, binding on a coated surface is turned into a signal by an enzyme label.

A further data set concerns U1 cells. Put plainly: MTT cell viability in parallel with the U1 assay. The conditions noted are these: Table 6; read-out: U1 TC50. The data set is classed as cell-based. The method, then: U1 activation assay. U1 cells obtained from the AIDS Research and Reference Reagent Program were maintained under standard culture conditions in RPMI 1640 supplemented with 10% fetal bovine serum (heat inactivated), 2 mM L-glutamine, 100U/mL penicillin and 100 μg/mL streptomycin. U1 cells contain an integrated copy of a phorbol ester inducible HIV-1 provirus and addition of phytohemagglutinin (PHA) to the cell culture was used to induce virus production. On the day of the assay, the U1 cells were activated with PHA and 250,000 cells were plated in 96-well plates. Test compounds were diluted in media and applied to the cells at final concentrations from 1 to 10,000 nM. Cultures were incubated for 3 days and supernatants harvested. Cell-free virus production was measured by p24 ELISA on culture supernatant. Compound toxicity was determined by MTT cell-viability assay in parallel assays.

For data set [4], the system named is Vpu-dependent degradation of Rev. Put plainly: Vpu-dependent degradation of Rev, western blot in transfected 293T cells. Type of data set: cell-based, HIV. The conditions noted are these: co-transfection with 100 ng Vpu expression plasmid. As for the experimental part:
Vpu is a regulator of Rev. In this experiment, Rev was expressed in the presence or absence of Vpu and levels of both proteins were measured by western blot. Flag tagged Rev and either Flag tagged Vpu or Flag tagged GFP were transfected to 293T cells.
Next we tested the Vpu-dependent degradation of Rev with the proteasome inhibitor MG132.

The subject of a further data set is PBMC. Put plainly: MTT toxicity in the PBMC replication assay. Type of data set: cell-based, Human. To be noted: PBMC experiment; read-out: TC50 by MTT assay. The source says:
Results of this experiment are shown in FIG. 9 where the replication and toxicity curves for isolate 93BR021 (CCR5-tropic, group M, subtype B) are shown.
On the technique in general: Formazan colour is commonly taken as a measure of viable cells.

In data set [5] the target is T1, Rev-RRE IIB interaction (Human immunodeficiency virus type 1 group M subtype B, UniProt P04608+P04618).
T1 construct: with a fusion to HIV Rev (residues 3-70) was generated; expressed in transfected cells
T1 sequence (P04608 whole entry, looked up, the tested form may be a part): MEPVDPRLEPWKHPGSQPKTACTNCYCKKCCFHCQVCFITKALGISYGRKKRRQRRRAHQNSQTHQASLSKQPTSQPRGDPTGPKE
T1 sequence (P04618 whole entry, looked up, the tested form may be a part): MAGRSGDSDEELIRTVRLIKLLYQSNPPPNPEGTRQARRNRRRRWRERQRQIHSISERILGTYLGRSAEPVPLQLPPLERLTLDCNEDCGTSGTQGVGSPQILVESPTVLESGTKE
The data set is classed as cell-based, HIV. As for the experimental part: A library of approximately 4500 carboxamide-containing compounds was assembled and tested in the reporter cell line at 30 μM. Reporter cells were plated in a white 96-well plate and compounds were added to the cells using a Biomek FX robotic liquid handler (Beckman Coulter). The cells were incubated with the compound for 48 hours then assayed for luciferase activity (Promega Bright Glo). The cytotoxicity of each compound was determined in parallel via MTT-based cell viability assays.
Cells were counted and plated into white 384-well or 96-well cell-culture treated assay plates and compounds were added. After 48 hours, the cells were prepared for luminescence assays that were performed on a plate reader (Tecan Evolution or MD Analyst). The cytotoxicity of each compound was determined in parallel via MTT-based cell viability assays.
Tat hybrid reporter assay. […] Previously characterized thienopyridines and diaminoacridine were used as controls. Cells were counted and plated into white 384-well cell-culture treated assay plates and compounds were added. After 48 hours, the cells were prepared for lumincescence assays that were performed on a plate reader (Tecan Evolution or MD Analyst). The cytotoxicity of each compound was determined in parallel via MTT-based cell viability assays.
The RRE IIB-Rev screening cell line was plated in 384-well assay plates and compounds were added to the cells to a final concentration of 30 μM. Cells were prepared and assayed for luciferase activity. […] In parallel, MTT cell viability assays were performed to assess the toxicity of compounds and minimize the level of false positives.

Data set [6] relates to Rev-RRE IIB interaction. The conditions noted are these: in vitro.
Description: To further validate the hits, we used an electrophoretic mobility shift assay (EMSA) to evaluate which of the three hit scaffolds were capable of disrupting the Rev-RRE IIB interaction in vitro.

Molecules are shown by their SMILES. Where a SMILES comes first, the peptide text is derived from it. The star is where a group is joined. Cbz = O=C(OCc1ccccc1)* Some results are limits rather than exact numbers.

What is called EC50 is the concentration at which the effect is half-maximal. Low values mean a more potent agent, high ones a less potent agent. One may read the IC50 as the concentration that inhibits the measured activity by half.

In the case of `CN(C)c1ccnc2sc(C(N)=O)c(N)c12` [drawing 241], in data set [1], the EC50 at 48 h was above 40 µM. The “Tat hybrid cell viability at 50,000 nM” value in data set [2] is “Y (Y = 30-60%)”. Also, the IC50 in data set [3] was above 0.5 µM. The CC50 with U1 cells is above 40 µM.
On to `CC(C)C[C@@H](C=O)NC(=O)[C@H](CC(C)C)NC(=O)[C@H](CC(C)C)NC(=O)OCc1ccccc1` [MG132] (Cbz-Leu-Leu-Leu-aldehyde), for which the “effect on Vpu-dependent degradation of Rev” value in data set [4] is reported as “blocks Vpu-dependent degradation of Rev”.
On to `Cc1cn([C@H]2C[C@H](N=[N+]=[N-])[C@@H](CO)O2)c(=O)[nH]c1=O` [AZT], for which the CC50 with PBMC is below 40 µM.
Regarding `Nc1ccc2cc3ccc(N)cc3nc2c1` [3,6 diaminoacridine, reference compound], the “activity in the Tat-hybrid reporter assay” value on Rev-RRE IIB interaction [5] is recorded as “inhibits expression of the reporter”. The “inhibition of the Rev-RRE interaction by EMSA” value in the data set on Rev-RRE IIB interaction [6] was “inhibition of Rev-RRE formation is observed”.

For the origin of these results see patent US10154992B2, “Compounds and methods for treating HIV infection” (THE REGENTS OF THE UNIVERSITY OF CALIFORNIA, priority 2016, dated 2018).
